Data from US5571822A, “Antitumor compounds” (The University of North Carolina at Chapel Hill, priority 1994, dated 1996).
Entries after “also recorded” stand apart in the source; their conditions may differ. Like-named read-outs stand apart in the source and are kept apart here.

How the values were obtained:
protein-linked DNA = experiment: breaks in protein-linked DNA; conditions: compared with VP-16
OVCAR-4 = experiment: NCI in vitro tumor cell screen, OVCAR-4 ovarian cancer; format: cell-based; conditions: Homo sapiens
Method: (§1) Selected 2-phenyl-4-quinolones were assayed using an in vitro, disease-oriented antitumor screen run by the National Cancer Institute (NCI) (e.g., Boyd 1989). The screen involved approximately 60 different cell lines and is a useful indicator of in vivo antitumor activity for a broad variety of tumor types (Grever et al., 1992; Monks et al., 1991). The cell lines tested included cells derived from the following solid tumor types: leukemia, non-small cell lung, colon, the central nervous system (CNS), melanoma, ovarian, renal, prostate, and breast cancers.

[1] = tested on: approximately 60 different cell lines; experiment: NCI in vitro disease-oriented human tumor cell screen, all cell lines; format: cell-based; conditions: for GI50: Homo sapiens
Text: The cell lines tested included cells derived from the following solid tumor types: leukemia, non-small cell lung, colon, the central nervous system (CNS), melanoma, ovarian, renal, prostate, and breast cancers.

tubulin [2] = experiment: inhibition of tubulin polymerization (ITP); format: biochemical, bovine
Method: Electrophoretically homogeneous bovine brain tubulin was purified as described previously (Hamel, et al., 1984). […] Dihydrocombretastatin A-4 was prepared as described previously (Getahun et al., 1992).
The tubulin polymerization assay was performed as described previously (Li et al., 1994). In brief, tubulin at 1.2 mg/mL ([…]) was preincubated for 15 min at 26° C. in a 0.24 mL volume in 0.8M monosodium glutamate (pH 6.6 with NaOH in a 2M stock solution) with varying drug concentrations. The drug stock solutions were in dimethyl sulfoxide, and the final solvent concentration was 4% (v/v). […] All concentrations are in terms of the final reaction volume (0.25 mL). The reaction mixtures were chilled on ice, and […] of 10 mM GTP was added to each reaction mixture. Samples were transferred to cuvettes held at 0° C. by an electronic temperature controller in Gilford spectrophotometers. Baselines were established at 350 nm, and polymerization initiated by a temperature jump to 26° C. The jump took about 50 sec to complete. After 20 min, turbidity readings were recorded, and the temperature controller was set to 0° C. When depolymerization was complete, turbidity readings were again recorded. […] IC50 values were obtained graphically from inhibition of polymerization by different drug concentrations. Four spectrophotometers were used for each experimental sequence, with at least two control reactions (no drug) in each set.

KM202L = experiment: NCI in vitro tumor cell screen, KM20L2 colon cancer; format: cell-based; conditions: Homo sapiens, KM-20L2
Method: as §1

RXF-393 = experiment: NCI in vitro tumor cell screen, RXF-393 renal cancer; format: cell-based; conditions: Homo sapiens
Method: as §1

MDA-N = experiment: NCI in vitro tumor cell screen, MDA-N breast cancer; format: cell-based; conditions: Homo sapiens
Method: as §1

tubulin [3] = experiment: inhibition of radiolabeled colchicine binding to tubulin (ICB); parameters: species or system bovine; conditions: evaluated only when polymerization IC50 ≤ 1.0 μM; inhibitor equimolar with [3H]colchicine, 5-fold molar excess over tubulin
Method: Studies conducted in support of the present invention indicate that one mode of action of the 2-phenyl-4-quinolone compounds, as antitumor agents, is an ability to bind to tubulin and inhibit cell mitosis. […] […].
[…]. […] […].
Electrophoretically homogeneous bovine brain tubulin was purified as described previously (Hamel, et al., 1984). Combretastatin A-4 was a generous gift of Dr. G. R. Pettit, Arizona State University. Dihydrocombretastatin A-4 was prepared as described previously (Getahun et al., 1992). […]

OVCAR-3 = experiment: NCI in vitro tumor cell screen, OVCAR-3 ovarian cancer; format: cell-based; conditions: Homo sapiens
Method: as §1

SK-Mel-5 = experiment: NCI in vitro tumor cell screen, SK-Mel-5 melanoma; format: cell-based; conditions: Homo sapiens
Method: as §1
(§2) melonoma; SF268 and SF295, CNS tumor cell lines; DU145, prostate cancer

K-562 = experiment: NCI in vitro tumor cell screen, K-562 leukemia; format: cell-based; conditions: Homo sapiens, K562
Method: as §1

NCI-H226 = experiment: NCI in vitro tumor cell screen, NCI-H226 non-small cell lung cancer; format: cell-based; conditions: Homo sapiens
Method: as §1

DU-145 = experiment: NCI in vitro tumor cell screen, DU-145 prostate cancer; format: cell-based; conditions: Homo sapiens
Method: as §1, §2

HCT116 = experiment: NCI in vitro tumor cell screen, HCT116 colon cancer; format: cell-based; conditions: Homo sapiens, HCT-116
Method: as §1

SF-295 = experiment: NCI in vitro tumor cell screen, SF-295 CNS tumor; format: cell-based; conditions: Homo sapiens, SF-295; read-out: logGI50 (converted)
Method: as §1, §2

SF-268 = experiment: NCI in vitro tumor cell screen, SF-268 CNS tumor; format: cell-based; conditions: Homo sapiens
Method: as §1, §2

[4] = calculated from all cell lines tested (Table II), read-out: average logGI50 (converted)
[5] = ± SD, tubulin 1.2 mg/mL, 26° C., 20 min, read-out: ITP IC50 (inhibition of tubulin polymerization)
[6] = SF-268, CNS tumor, read-out: logGI50 (converted)
[7] = average over cell lines, read-out: average log GI50 (converted)

SMILES	IC50 (tubulin [2]; [5])	ICB (% inhibition of colchicine binding) (tubulin [3])	breaks in protein-linked DNA (protein-linked DNA)	GI50 (OVCAR-4)	GI50 [1, 4]	GI50 (KM202L)	GI50 (RXF-393)	GI50 (MDA-N)	GI50 (OVCAR-3)	GI50 (SK-Mel-5)	GI50 (K-562)	GI50 (NCI-H226)	GI50 (DU-145)	GI50 (HCT116)	GI50 (SF-295)	GI50 (SF-268; [6])	GI50 [1, 7]	also measured
O=c1cc(-c2cccc(OC(F)(F)F)c2)[nH]c2cc3c(cc12)OCO3 [compound 17, 3'-Trifluoromethoxy-6,7-methylenedioxy-2-phenyl-4-quinolone]	0.0005 ± 0.0001 mM	40 ± 5%	–	0.0257 µM	417 nM	36.3 nM	40.7 nM	< 10 nM	63.1 nM	170 nM	36.3 nM	195 nM	45.7 nM	14.1 nM	25.7 nM	–	–	–
COc1cccc(-c2cc(O)c3cc(NC(C)=O)ccc3n2)c1 [compound 27, 3'-Methoxy-6-acetamido-2-phenyl-4-quinolone]	0.0021 ± 0.0005 mM	–	no detectable breaks in protein-linked DNA	–	20000 nM	–	–	–	–	–	–	–	–	–	–	–	–	GI50 (SF-268; SF-268, read-out: logGI50 (converted)): 5500 nM
COc1cccc(-c2cc(O)c3cc(N4CCCC4)ccc3n2)c1 [compound 28, 3'-Methoxy-6-pyrrolinyl-2-phenyl-4-quinolone]	–	–	–	2 µM	1.86 nM	< 1 nM	< 1 nM	< 1 nM	< 1 nM	< 1 nM	< 1 nM	< 1 nM	< 1 nM	< 1 nM	< 1 nM	< 1 nM	≤ 1.86 nM	antitumor activity / cytotoxicity, in words [1]: most potent activity of all; also recorded: exceeded the sensitivity of the testing protocol for many of the cell lines tested
COc1cccc(-c2cc(O)c3cc(N(C)C)ccc3n2)c1 [compound 23, 3'-Methoxy-6-N,N-dimethylamino-2-phenyl-4-quinolone]	0.00038 ± 0.0001 mM	14 ± 8%	–	5.5 µM	30.2 nM	4.57 nM	18.6 nM	1.7 nM	15.1 nM	25.7 nM	8.91 nM	44.7 nM	34.7 nM	–	15.5 nM	43.7 nM	31.6 nM	antitumor activity / cytotoxicity, in words [1]: in every case lower than those observed for compounds 10-22, 25-27, and 32; difference in average log GI50 versus compounds 10-22, 25-27, and 32 [1]: at least 0.9 log units; IC50 (tubulin [2]; values given in mM, read-out: IC50, inhibition of tubulin polymerization): 0.00038 mM
CCOc1cccc(-c2cc(=O)c3cc4c(cc3[nH]2)OCO4)c1 [compound 18, 3'-Ethoxy-6,7-methylenedioxy-2-phenyl-4-quinolone]	0.00047 ± 0.0001 mM	40 ± 2%	–	–	224 nM	182 nM	275 nM	17.8 nM	166 nM	191 nM	44.7 nM	324 nM	251 nM	174 nM	64.6 nM	269 nM	224 nM	–

Further lines, with some results ahead:

IC50 (tubulin [2]; [5])	ICB (% inhibition of colchicine binding) (tubulin [3])	SMILES	breaks in protein-linked DNA (protein-linked DNA)	GI50 (OVCAR-4)	GI50 [1, 4]	GI50 (KM202L)	GI50 (RXF-393)	GI50 (MDA-N)	GI50 (OVCAR-3)	GI50 (SK-Mel-5)	GI50 (K-562)	GI50 (NCI-H226)	GI50 (DU-145)	GI50 (HCT116)	GI50 (SF-295)	GI50 (SF-268; [6])	GI50 [1, 7]	also measured
0.0023 ± 0.0007 mM	–	CC(=O)Nc1ccc2nc(-c3cccc(Cl)c3)cc(O)c2c1 [compound 26, 3'-Chloro-6-acetamido-2-phenyl-4-quinolone]	no detectable breaks in protein-linked DNA	> 100 µM	10500 nM	–	–	–	–	–	–	–	–	–	–	–	–	–
0.00045 ± 3e-05 mM	26 ± 5%	O=c1cc(-c2cccc(OCc3ccccc3)c2)[nH]c2cc3c(cc12)OCO3 [compound 19, 3'-Benzyloxy-6,7-methylenedioxy-2-phenyl-4-quinolone]	–	> 100 µM	676 nM	224 nM	407 nM	145 nM	245 nM	282 nM	363 nM	229 nM	1100 nM	389 nM	447 nM	12900 nM	–	–
0.0007 ± 0.0002 mM	16 ± 5%	COc1cccc(-c2cc(O)c3cc(Cl)ccc3n2)c1 [compound 24, 3'-Methoxy-6-chloro-2-phenyl-4-quinolone]	no detectable breaks in protein-linked DNA	–	–	–	–	–	–	–	–	–	–	–	–	–	–	–
